Results reported in patent publication US11401264B2, “Heterocyclic compound” (Orizuru Therapeutics, Inc., priority 2018, dated 2022).

Tested on: cardiomyocytes from double knock-in human iPS cell lines (mCherry at TNNI3 locus)
Test: Experimental Example 1: mCherry (TNNI3 reporter) immunostaining measured by high contents screening
Format: cell-based
Parameters: key to average fluorescent intensity (at 30 μM): —: The symbol in Table 2 means that the average fluorescent intensity cannot be evaluated due to cell decrease
Settings: read on 8th day, Alexa 647 anti-mCherry, control well 797; for average fluorescent intensity (at 1 μM): test compound 1 μM added on 3rd and 6th culture days; for average fluorescent intensity (at 30 μM): test compound 30 μM added on 3rd and 6th culture days
Protocol: For detection of cardiomyocyte maturation, double knock-in human iPS cell lines, in which reporter protein sequences, EmGFP (Sequence Number 1) and mCherry (Sequence Number 2) were inserted into gene loci for TNNI1 and TNNI3, respectively, were prepared (the human iPS cells were prepared from episomal vector (loaded gene; OCT3/4, KLF4, SOX2, L-MYC, LIN28, mouse p53DD) using PBMC (LP_167, Sample ID: 20130318) purchased from CTL (reference literature; Okita K, et al. Stem Cells. 2012 Nov. 29. doi: 10.1002/stem.1293)).
The maintenance culture of the above-mentioned reporter iPS cell lines was carried out by a conventional method (Okita K, et al. Stem Cells. 2012 Nov. 29. doi: 10.1002/stem.1293).
For differentiation induction into cardiomyocytes, the reporter iPS cell lines were treated with 0.5×TrypLE select (Life Technologies, diluted in 1/2 with 0.5 mM EDTA/PBS) for 4 to 5 minutes, and the cells were exfoliated using a cell scraper (IWAKI), and then dissociated into the single cell by pipetting. The medium was removed by centrifugation (1,000 rpm, 5 min), and the obtained cells were seeded on a bioreactor (ABLE) by 1×10^7 cells per 30 mL of the bioreactor, and then cultured in a medium prepared by adding 1% L-glutamine, transferrin 150 μg/mL, ascorbic acid 50 μg/mL (Sigma), monothioglycerol 4×10^−4 M, 10 μM Rock inhibitor (Y-27632), 2 ng/mL BMP4 (R&D) and 0.5% Matrigel (Growth Factor Reduced) to a medium after removal of solution C from StemFit AK02 (AJINOMOTO AK02, 400 mL of solution A and 100 mL of B solution, total 500 mL), at 37° C., under 5% oxygen condition (55 rpm, stirred suspension culture method) to form embryoid bodies (0 day).
Next day (1st day), 9 μL (final concentration 3 ng/mL) of 10 μg/mL activin A, 15 μL (final concentration 5 ng/mL) of 10 μg/mL bFGF and […] (final concentration 10 ng/mL) of 10 μg/mL BMP4 were added to the bioreactor, and the cells were cultured at 37° C. for additional 2 days, under 5% oxygen condition.
Then (3rd day), the obtained embryoid bodies were collected in a 50 mL centrifuge tube, and then subjected to centrifugation (200 g, 1 min). The medium was removed, and the embryoid bodies were cultured in a medium prepared by adding 1% L-glutamine, transferrin 150 μg/mL, ascorbic acid 50 μg/mL (Sigma), monothioglycerol 4×10^−4 M, 10 ng/mL VEGF, 1 μM IWP-3, 0.6 μM dorsomorphin and 5.4 μM SB431542 to a medium after removal of solution C from StemFit AK02 (AJINOMOTO AK02, 400 mL of solution A and 100 mL of B solution, total 500 mL), at 37° C. for 3 days, under 5% oxygen condition (55 rpm, stirred suspension culture method).
Then (6th day), the bioreactor was left to stand to precipitate the embryoid bodies, and 80 to 90% of the medium was removed. A medium prepared by adding 1% L-glutamine, transferrin 150 μg/mL, ascorbic acid 50 μg/mL (Sigma), monothioglycerol […] and 5 ng/mL VEGF to a medium after removal of solution C from StemFit AK02 (AJINOMOTO AK02, 400 mL of solution A and 100 mL of B solution, total 500 mL) was added to the bioreactor so that the total volume became 30 mL, and the embryoid bodies were cultured for 8 days, at 37° C., under 5% oxygen condition (55 rpm, stirred suspension culture method). During the culture, the medium was replaced with a medium under the same conditions every 2 to 3 days.
14th Day after the start of the differentiation induction, the embryoid bodies were treated with 2 mg/mL collagenase type I (Sigma) for 2 hr, and then with 0.25% trypsin/EDTA (Invitrogen) for 10 min. 50% FBS/IMDM (Thermo Fisher Science) was added thereto, and the embryoid bodies were dissociated into the single cell by pipetting, and then subjected to centrifugation (1,000 rpm, 5 minutes). […]

Row | SMILES | average fluorescent intensity (at 1 μM) | average fluorescent intensity (at 30 μM)
1 | CC(C)(C)OC(=O)N1CCC(c2nc3cc(N4Cc5cc(N6CCCCC6)ccc5C4=O)ccc3[nH]2)CC1 [Example 42, tert-butyl 4-(5-(1-oxo-5-(piperidin-1-yl)-1,3-dihydro-2H-isoindol-2-yl)-1H-benzimidazol-2-yl)piperidine-1-carboxylate] | 980 | 1041
2 | O=C1c2ccc(N3CCCCC3)cc2CN1c1ccc2[nH]c(C3CCOCC3)nc2c1 [Example 43, 5-(piperidin-1-yl)-2-(2-(tetrahydro-2H-pyran-4-yl)-1H-benzimidazol-5-yl)isoindolin-1-one] | 1087 | 1153
3 | O=C1c2ccc(N3CCCCC3)cc2CN1c1ccc2[nH]c(C3CCCCC3)nc2c1 [Example 44, 2-(2-cyclohexyl-1H-benzimidazol-5-yl)-5-(piperidin-1-yl)isoindolin-1-one] | 1071 | 1141
4 | O=C1c2ccc(N3CCCCC3)cc2CN1c1ccc2[nH]c(-c3ccccn3)nc2c1 [Example 47, 5-(piperidin-1-yl)-2-(2-(pyridin-2-yl)-1H-benzimidazol-5-yl)isoindolin-1-one] | 1115 | 1348
5 | CC(C)Oc1ccc(-c2nc3cc(N4Cc5cc(N6CCCCC6)ccc5C4=O)ccc3[nH]2)cc1 [Example 48, 2-(2-(4-isopropoxyphenyl)-1H-benzimidazol-5-yl)-5-(piperidin-1-yl)isoindolin-1-one] | 1182 | 1408
6 | CCCNC(=O)COc1ccc(-c2nc3cc(N4Cc5cc(N6CCOCC6)ccc5C4=O)ccc3[nH]2)cc1 [Example 49, 2-(4-(5-(5-(morpholin-4-yl)-1-oxo-1,3-dihydro-2H-isoindol-2-yl)-1H-benzimidazol-2-yl)phenoxy)-N-propylacetannide] | 1382 | 890
7 | COC(=O)COc1ccc(-c2nc3cc(N4Cc5cc(N6CCOCC6)ccc5C4=O)ccc3[nH]2)cc1 [Example 50, methyl (4-(5-(5-(morpholin-4-yl)-1-oxo-1,3-dihydro-2H-isoindol-2-yl)-1H-benzimidazol-2-yl)phenoxy)acetate] | 1126 | 1717
8 | O=C(O)COc1ccc(-c2nc3cc(N4Cc5cc(N6CCOCC6)ccc5C4=O)ccc3[nH]2)cc1 [Example 51, (4-(5-(5-(morpholin-4-yl)-1-oxo-1,3-dihydro-2H-isoindol-2-yl)-1H-benzimidazol-2-yl)phenoxy)acetic acid] | 963 | 1279
9 | O=C(COc1ccc(-c2nc3cc(N4Cc5cc(N6CCOCC6)ccc5C4=O)ccc3[nH]2)cc1)OCc1ccccc1 [Example 52, benzyl (4-(5-(5-(morpholin-4-yl)-1-oxo-1,3-dihydro-2H-isoindol-2-yl)-1H-benzimidazol-2-yl)phenoxy)acetate] | 937 | 973
10 | O=C1c2ccc(N3CCOCC3)cc2CN1c1ccc2[nH]c(-c3ccc(O)cc3)nc2c1 [Example 53, 2-(2-(4-hydroxyphenyl)-1H-benzimidazol-5-yl)-5-(morpholin-4-yl)isoindolin-1-one] | 880 | 2812
11 | CCCCCCOc1ccc(-c2nc3cc(N4Cc5cc(N6CCOCC6)ccc5C4=O)ccc3[nH]2)cc1 [Example 54, 2-(2-(4-(hexyloxy)phenyl)-1H-benzimidazol-5-yl)-5-(morpholin-4-yl)isoindolin-1-one] | 838 | —
12 | O=C1c2ccc(N3CCOCC3)cc2CN1c1ccc2[nH]c(-c3ccc(OCc4ccccc4)cc3)nc2c1 [Example 55, 2-(2-(4-(benzyloxy)phenyl)-1H-benzimidazol-5-yl)-5-(morpholin-4-yl)isoindolin-1-one] | 1092 | —
